Data from patent US9617197B2, “Compositions and methods for treating inflammatory diseases” (University of Virginia Patent Foundation, priority 2010, dated 2017).

Key:
[1] = Chemical stability in pH 6.7 buffer; format: physicochemical
[2] = Toxicity in murine pre-clinical models; format: in vivo
[3] = biological target: T1, human recombinant LTA4H enzyme (LTA4H AP activity) (Homo sapiens, UniProt P09960); details: Jiang et al. (2008); cited from earlier work
T1 sequence (P09960 1-611): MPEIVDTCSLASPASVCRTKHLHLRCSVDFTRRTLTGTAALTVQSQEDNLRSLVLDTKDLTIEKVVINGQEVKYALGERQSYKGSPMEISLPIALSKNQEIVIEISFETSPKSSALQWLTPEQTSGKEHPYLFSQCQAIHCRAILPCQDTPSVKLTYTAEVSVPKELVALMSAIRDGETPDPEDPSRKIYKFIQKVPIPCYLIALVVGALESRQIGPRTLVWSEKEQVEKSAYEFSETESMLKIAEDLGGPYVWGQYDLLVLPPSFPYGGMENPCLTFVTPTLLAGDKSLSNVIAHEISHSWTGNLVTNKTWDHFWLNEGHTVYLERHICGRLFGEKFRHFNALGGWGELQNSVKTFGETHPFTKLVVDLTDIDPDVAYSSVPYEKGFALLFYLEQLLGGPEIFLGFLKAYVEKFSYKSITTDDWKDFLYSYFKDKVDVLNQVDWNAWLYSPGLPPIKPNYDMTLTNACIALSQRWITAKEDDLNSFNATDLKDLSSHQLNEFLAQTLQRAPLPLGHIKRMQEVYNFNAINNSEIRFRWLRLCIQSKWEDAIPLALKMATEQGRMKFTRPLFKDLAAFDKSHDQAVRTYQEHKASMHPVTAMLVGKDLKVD

[4] = biological target: T1, human recombinant LTA4H enzyme (LTA4H AP activity); assay: In vitro aminopeptidase activity assay; format: biochemical; details: recombinant LTA4H + Ala-pNA; 500 μM, 10 μM, 5 μM, 100 nM; FIG. 2
Method: FIG. 2. In vitro aminopeptidase activity assay. The peptidase activity of compounds was determined following the method of Jiang and co-workers (2008). […] No Enzyme=buffer. Enzy=buffer+recombinant LTA4H. 500 μM, 10 μM, 5 μM, and 100 nM=buffer+recombinant LTA4H+Ala-pNA+MDM.
FIG. 7. Biological activities of 2-hydroxypropyl-β-cyclodextrin encapsulated 4-methoxydiphenylmethane (“CDX-MDM”). […] No Enzyme=buffer. 0 M=buffer+recombinant LTA4H+Ala-pNA+no MDM. 500 μM, 10 μM, 5 μM, and 100 nM=buffer+recombinant LTA4H+Ala-pNA+MDM (500 μM, 10 μM, 5 μM, or100 nM).
(§1) In order to establish the biological roles of LTA4H AP activity in the pathogenesis of pulmonary emphysema, wild type mice were exposed to porcine elastase via the intra-nasal route and then treated with one LTA4H AP activity augmentor (compound 66, MDM), a LTA4H AP activity inhibitor (compound 67, PDM), or vehicle (peanut oil). Synthesis of MDM was accomplished by treatment of 4-benzyl phenol in dimethylformamide solvent with potassium hydroxide followed by methyl iodide (FIG. 1). Synthesis of compound PDM was accomplished by treatment of 4-benzyl phenol in dimethylformamide solvent with potassium hydroxide followed by butyl iodide (FIG. 1). The peptidase activity of the compound was determined following the method of Jiang and co-workers (2008).

[5] = system: elastase induced murine pulmonary emphysema; assay: Elastase-induced murine pulmonary emphysema model; format: in vivo, mice; details: for pre mortem lung compliance (Flexivent): 4 weeks after intra-nasal elastase, drug intra-peritoneal in peanut oil, FIG. 3; for severity of pulmonary emphysema: vs vehicle treated control animals
Method: To investigate the role that LTA4H plays in the pathogenesis of human diseases, murine models of elastase-induced pulmonary emphysema (Example 1) and LPS-induced acute lung injury (Example 3) were tested. In order to establish the elastase-dose dependent severity of murine pulmonary emphysema, increasing doses of porcine elastase were instilled into murine lungs of 129J background via the intra-nasal route. Four weeks after elastase was instilled, mouse lungs were harvested en block, inflated with 1% low melting point agarose gel (LMPA) at 25 cm melted 1% LMPA pressure. Lungs were then fixed overnight in formaldehyde. […] This confirmed that intra-nasal elastase administration was able to induce pulmonary emphysema in a dose-dependent manner.
as §1
Elastase (0.75 μg elastase per gm mouse weight) was instilled via the intra-nasal route. After 4 weeks, mice were sedated, intubated, and ventilated with Sireq Flexivent to measure lung compliance pre mortem. It was understood that lungs with more severe emphysema would have lost more elasticity, and thus, their lung compliance would be greater when measured by a small animal ventilator (FIG. 3). Once lung compliance was measured, mice were euthanized. Lungs were harvested en block without damaging outer coverings. Once harvested, lungs were inflated with 1% low melting point agarose gel (LMPA) at 25 cm melted 1% LMPA gel pressure. Once inflated, the total lung volumes were measured by volume displacement technique (FIG. 4). It was understood that lungs with more severe emphysema would have lost more elasticity, and thus their lung volume would be greater after being inflated with a uniform pressure. After the total lung volume measurement, lungs were fixed in para-formaldehyde overnight. On the following day, whole lungs were photographed (FIG. 5). Lungs with more severe emphysema would have lost more elasticity, and thus their lungs would be larger after being fixed with para-formaldehyde. The lungs were then paraffin embedded, paraffin sections were H&E stained (FIG. 6A), and morphometry was performed by using NIH ImagePro software and custom written macro string (Shim et al., 2006; Shim et al., 2010; Zheng et al., 2000; Zu et al., 1999). Alveolar intercepts were calculated and averaged from at least 8 animals in each group to yield chord length of each group (FIG. 6B). It was understood that alveoli from lungs with more severe emphysema would be larger after losing more elasticity and thus their chord length of the alveoli would be longer.

[6] = Bioavailability in mice; format: in vivo
[7] = Encapsulation and equilibrium solubility test (HPLC); format: physicochemical
Method: To 5.3 mg (1.0 equivalent) of MDM was added 160.0 mg (4.0 equivalents) of CDX followed by 4.8 mL of water. […] The homogeneity of the solution was analyzed by HPLC.
Solubility measurement. […] Method: isocratic 80:20 acetonitrile-water at 1.0 mL/min, injection volume=5 μL, monitoring at λ=250 nm.
The method was carried out above with phosphate buffer saline (PBS, Ampresco, 20× concentrate, pH7.5; 500 μL of PBS concentrate was added to 9500 μL of water). To 6.0 mg (1.0 equivalents) of MDM was added 180.0 mg (4.0 equivalents) of CDX followed by 5.8 mL of water. […] The homogeneity of the solution was analyzed by HPLC.
The method was carried out as above. To 2.4 mg (1.0 equivalents) of MDM was added 0.035 g (2.0 equivalents) of CDX followed by 2.4 mL of PBS solution. […] The homogeneity of the solution was analyzed by HPLC.

## COc1ccc(Oc2ccccc2)cc1 [1-methoxy-4-phenoxybenzene]
[1]
  chemical stability in pH 6.7 buffer: chemical instability
[2]
  mortality: greater than 85%
[3]
  LTA4H AP activity in vitro: upregulates

## COc1ccc(Cc2ccccc2)cc1 [MDM, 4-methoxydiphenylmethane]
[4]
  LTA4H AP activity: augment
[1]
  chemical stability in pH 6.7 buffer: stable
[5]
  pre mortem lung compliance (Flexivent): significantly lower lung compliance
  severity of pulmonary emphysema: significantly less severe
[5]; vs PDM or vehicle control, FIG. 4
  post mortem total lung volume (volume displacement): much less emphysematous
[5]; vs PDM or vehicle control, FIG. 5
  gross size of inflated whole lungs: much smaller
[5]; vs drug 67 or vehicle (peanut oil), FIG. 6
  lung histology chord length: shorter
[6]; encapsulated formulation with 2-hydroxypropyl-β-cyclodextrin, intra-nasal administration to mice
  bioavailability: bioavailable
[6]; intra-peritoneal injection of mice, MDM combined with peanut oil
  bioavailability: bioavailable
[7]; 1:2 MDM:CDX in PBS, calculated 5.04 mM
  concentration in solution by standard curve: 2950 µM
[7]; 1:2 ratio of MDM:CDX in PBS
  fraction of the MDM in the homogeneous solution at equilibrium: 59%
[7]; PBS solution
  solubility with 2 equivalents of CDX: 590 µg/mL

## CCCCCOc1ccc(Cc2ccccc2)cc1 [PDM, 4-pentoxydiphenylmethane]
[4]
  LTA4H AP activity: decrease
[5]
  pre mortem lung compliance (Flexivent): high lung compliance similar to lungs treated with vehicle
  severity of pulmonary emphysema: deleterious outcomes
